# Biological target: T1, cardiac voltage-gated sodium channel (NaV1.5) (Homo sapiens, UniProt Q14524)
# T1 construct: gene SCN5A; human NaV1.5 channels stably expressed in HEK-293 cells, without β-subunits
# Experiment: whole-cell patch clamp, peak NaV1.[…] current at −[…] mV, HEK-293 cells
# Assay type: cell-based
# T1 sequence (Q14524 whole entry): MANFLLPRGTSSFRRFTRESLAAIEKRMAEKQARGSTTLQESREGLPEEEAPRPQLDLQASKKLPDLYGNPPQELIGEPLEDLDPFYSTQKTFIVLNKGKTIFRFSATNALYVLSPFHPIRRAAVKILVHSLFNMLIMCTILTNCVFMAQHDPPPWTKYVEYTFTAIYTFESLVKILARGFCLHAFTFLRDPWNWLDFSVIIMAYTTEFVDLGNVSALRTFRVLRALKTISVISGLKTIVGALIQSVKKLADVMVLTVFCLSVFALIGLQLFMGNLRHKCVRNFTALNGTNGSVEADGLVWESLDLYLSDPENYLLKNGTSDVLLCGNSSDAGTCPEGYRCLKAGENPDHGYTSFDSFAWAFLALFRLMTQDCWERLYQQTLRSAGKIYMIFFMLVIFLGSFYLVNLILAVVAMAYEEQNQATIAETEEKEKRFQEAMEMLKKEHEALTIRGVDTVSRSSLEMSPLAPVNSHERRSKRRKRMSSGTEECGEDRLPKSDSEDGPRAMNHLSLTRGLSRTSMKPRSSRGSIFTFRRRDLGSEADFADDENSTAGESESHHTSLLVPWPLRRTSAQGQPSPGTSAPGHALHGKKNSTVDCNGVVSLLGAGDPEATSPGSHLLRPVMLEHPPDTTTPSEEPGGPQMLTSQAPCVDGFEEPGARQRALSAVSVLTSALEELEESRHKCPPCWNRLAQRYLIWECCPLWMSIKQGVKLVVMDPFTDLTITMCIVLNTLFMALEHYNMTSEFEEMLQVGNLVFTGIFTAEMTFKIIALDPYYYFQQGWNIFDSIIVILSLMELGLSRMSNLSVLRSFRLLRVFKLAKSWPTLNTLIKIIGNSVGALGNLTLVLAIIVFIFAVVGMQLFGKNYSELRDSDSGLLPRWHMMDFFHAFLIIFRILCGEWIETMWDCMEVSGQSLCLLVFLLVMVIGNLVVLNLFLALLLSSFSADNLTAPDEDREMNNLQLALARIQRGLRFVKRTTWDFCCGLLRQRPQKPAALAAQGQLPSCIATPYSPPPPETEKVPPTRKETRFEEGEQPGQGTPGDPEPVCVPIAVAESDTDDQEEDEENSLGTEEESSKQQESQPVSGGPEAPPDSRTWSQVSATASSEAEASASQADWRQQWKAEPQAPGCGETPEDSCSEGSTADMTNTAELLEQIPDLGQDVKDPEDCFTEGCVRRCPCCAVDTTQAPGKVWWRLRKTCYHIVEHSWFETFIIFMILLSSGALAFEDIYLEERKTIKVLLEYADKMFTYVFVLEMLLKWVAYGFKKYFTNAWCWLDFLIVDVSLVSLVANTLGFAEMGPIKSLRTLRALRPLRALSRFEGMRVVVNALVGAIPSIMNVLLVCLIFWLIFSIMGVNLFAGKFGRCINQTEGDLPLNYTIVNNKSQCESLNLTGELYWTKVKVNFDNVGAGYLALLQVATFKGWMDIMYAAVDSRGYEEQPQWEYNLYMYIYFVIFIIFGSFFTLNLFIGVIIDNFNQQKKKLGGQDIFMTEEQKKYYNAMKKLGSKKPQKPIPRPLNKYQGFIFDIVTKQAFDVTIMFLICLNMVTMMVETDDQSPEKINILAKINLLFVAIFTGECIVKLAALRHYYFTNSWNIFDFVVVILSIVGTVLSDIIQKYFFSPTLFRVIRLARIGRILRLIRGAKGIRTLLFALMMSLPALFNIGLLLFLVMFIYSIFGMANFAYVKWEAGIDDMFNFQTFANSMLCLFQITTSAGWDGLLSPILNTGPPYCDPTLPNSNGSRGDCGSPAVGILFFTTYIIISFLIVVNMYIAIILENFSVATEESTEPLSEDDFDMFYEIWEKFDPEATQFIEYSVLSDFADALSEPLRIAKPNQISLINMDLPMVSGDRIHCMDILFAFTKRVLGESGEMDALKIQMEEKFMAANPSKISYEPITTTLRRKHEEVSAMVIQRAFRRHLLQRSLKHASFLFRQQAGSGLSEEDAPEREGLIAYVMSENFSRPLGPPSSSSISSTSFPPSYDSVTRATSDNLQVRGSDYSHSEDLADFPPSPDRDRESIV
smiles,measurement,value
Fc1ccc([C@@H]2CCNC[C@H]2COc2ccc3c(c2)OCO3)cc1 [paroxetine],IC50,6.8 ± 1.1 µM

# Source: paper PMC9915920, “The Antidepressant Paroxetine Reduces the Cardiac Sodium Current” (International Journal of Molecular Sciences, 2023)
